Source: paper PMC6148290, “Endogenous metabolites of vitamin E limit inflammation by targeting 5-lipoxygenase” (Nature Communications, 2018)

Legend:
[1] = tested on: peripheral blood mononuclear cells; assay: Cell viability of PBMC (MTT assay); assay type: cell-based, human; conditions: 24 h
Description: The formazan product was solubilized with SDS (10% in 20 mM HCl), and absorbance was measured at 570 nm using a Multiskan Spectrum microplate reader (Thermo Fisher Scientific).

[2] = target: T1, 5-LO (Homo sapiens, UniProt P09917); assay: 5-LO product formation in activated PMNL; assay type: cell-based; parameters: Freshly isolated PMNL (1 × 10^7); endogenous in cells; host or cells: human PMNL freshly isolated from leukocyte concentrates; conditions: cell-based; mean ± s.e.m., n = 3; read-out: IC50, activated PMNL (5-LO)
T1 sequence (P09917 1-674): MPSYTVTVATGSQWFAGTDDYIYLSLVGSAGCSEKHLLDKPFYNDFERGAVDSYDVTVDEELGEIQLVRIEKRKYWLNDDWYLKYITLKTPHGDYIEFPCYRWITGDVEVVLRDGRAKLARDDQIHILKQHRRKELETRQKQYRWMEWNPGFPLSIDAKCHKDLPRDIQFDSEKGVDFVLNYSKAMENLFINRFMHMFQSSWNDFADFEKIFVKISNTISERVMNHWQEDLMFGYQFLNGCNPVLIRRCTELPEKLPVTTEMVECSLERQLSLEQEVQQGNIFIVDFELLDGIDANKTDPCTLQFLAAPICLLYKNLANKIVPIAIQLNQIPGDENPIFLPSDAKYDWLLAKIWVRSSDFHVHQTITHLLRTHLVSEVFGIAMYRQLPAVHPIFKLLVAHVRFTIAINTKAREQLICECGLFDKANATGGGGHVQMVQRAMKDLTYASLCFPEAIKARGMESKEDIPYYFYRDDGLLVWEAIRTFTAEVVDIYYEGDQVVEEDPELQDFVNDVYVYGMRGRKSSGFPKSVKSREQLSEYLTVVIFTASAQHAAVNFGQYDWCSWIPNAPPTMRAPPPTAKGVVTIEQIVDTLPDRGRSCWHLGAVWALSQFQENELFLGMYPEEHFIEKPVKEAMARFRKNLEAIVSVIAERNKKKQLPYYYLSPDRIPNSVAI
Text: Human PMNL, monocytes, PBMC, and platelets were freshly isolated from leukocyte concentrates. The protocols for experiments with human blood and blood cells were approved by the ethical commission of the Friedrich-Schiller-University Jena. […] PMNL were recovered from the pellet after hypotonic lysis of erythrocytes. Platelets were obtained from the supernatant and washed with PBS pH 5.9/0.9% NaCl (1:1). […]

[3] = target: T1, 5-LO; assay: Activity of purified human recombinant 5-LO (cell-free); assay type: biochemical; parameters: made in house; host or cells: E. coli Bl21 (DE3)
Description: E. coli Bl21 (DE3) cells were transformed with pT3–5LO plasmid to express human recombinant 5-LO, which was purified by affinity chromatography on an ATP-agarose column. In brief, E. coli was lysed in 50 mM triethanolamine/HCl pH 8.0 plus EDTA (5 mM), soybean trypsin inhibitor (60 µg/ml), phenylmethanesulphonyl fluoride (1 mM), dithiothreitol (1 mM), and lysozyme (1 mg/ml). After sonication (3 × 15 s), the homogenate was centrifuged at 10,000 × g for 15 min and the supernatant again at 40,000 × g for 70 min at 4 °C. The supernatant was applied to an ATP-agarose column (Sigma-Aldrich), and the column was washed with (i) PBS pH 7.4, 1 mM EDTA, (ii) 50 mM phosphate buffer pH 7.4, 0.5 M NaCl, 1 mM EDTA, and (iii) 50 mM phosphate buffer pH 7.4, 1 mM EDTA. 5-LO was eluted with 50 mM phosphate buffer pH 7.4, 1 mM EDTA, 20 mM ATP.
Purified 5-LO (0.5 µg) in PBS pH 7.4 containing EDTA (1 mM) and ATP (1 mM) was pre-incubated with LCMs for 10 min at 4 °C, pre-warmed for 30 s at 37 °C and 5-LO product formation was started by addition of AA (Sigma-Aldrich; 20 µM if not indicated otherwise) plus CaCl2 (2 mM). […] AA was added after incubation for 5 min on ice.

[4] = target: T2, 12-LO (Homo sapiens, UniProt P18054); assay: 12-LO product formation in A23187/AA-activated PMNL; assay type: cell-based; conditions: at 3 µM; mean ± s.e.m., n = 3; n.i. no inhibition
T2 construct: 12-HETE (12-LO product from platelets in PMNL preparations); endogenous in cells; host or cells: platelets contaminating human PMNL preparations
T2 sequence (P18054 1-663): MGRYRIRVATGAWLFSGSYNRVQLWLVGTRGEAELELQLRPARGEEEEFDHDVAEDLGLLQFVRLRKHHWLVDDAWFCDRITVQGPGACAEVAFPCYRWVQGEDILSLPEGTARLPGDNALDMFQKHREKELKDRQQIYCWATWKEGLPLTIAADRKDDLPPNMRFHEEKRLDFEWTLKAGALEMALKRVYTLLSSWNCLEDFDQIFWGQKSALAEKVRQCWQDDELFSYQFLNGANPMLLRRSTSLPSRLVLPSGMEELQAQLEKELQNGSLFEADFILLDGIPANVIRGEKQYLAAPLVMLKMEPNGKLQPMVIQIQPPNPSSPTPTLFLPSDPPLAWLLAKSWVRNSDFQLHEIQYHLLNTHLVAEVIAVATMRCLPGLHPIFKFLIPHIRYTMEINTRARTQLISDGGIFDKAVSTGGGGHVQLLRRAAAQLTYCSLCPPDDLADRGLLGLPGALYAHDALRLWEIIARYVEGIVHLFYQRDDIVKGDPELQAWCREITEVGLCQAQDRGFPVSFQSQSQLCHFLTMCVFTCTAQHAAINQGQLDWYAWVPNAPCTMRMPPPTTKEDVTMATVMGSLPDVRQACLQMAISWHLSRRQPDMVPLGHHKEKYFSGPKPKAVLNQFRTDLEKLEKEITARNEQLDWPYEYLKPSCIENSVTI
Description: (§1) Cells were washed and medium was exchanged. Freshly isolated PMNL (1 × 10^7) and stably transfected HEK-293 (1 × 10^6) cells were suspended in PBS pH 7.4 containing 1 mg/ml glucose and 1 mM CaCl2. […] A23187- and A23187/AA-treated PMNL and A23187/AA-treated HEK-293 (5-LO_wt), HEK-293 (5-LO_3W) and HEK-293 (5-LO_Arg101Asp) cells produced 135 ± 21, 636 ± 112, 300 ± 59, 133 ± 29, 55 ± 9 ng 5-LO products, respectively. PMNL synthesized 29 ± 6 ng 12-HETE and 97 ± 23 ng 15-HETE when challenged with A23187/AA. 5-LO products from monocytes were analyzed by UPLC-MS/MS.

[5] = tested on: 15-LO; assay: 15-LO product formation in A23187/AA-activated PMNL; assay type: cell-based, human; conditions: at 3 µM; mean ± s.e.m., n = 3; n.i. no inhibition
Description: as §1

[6] = at 1 and 10 µM (one entry for both), n.i. no inhibition
[7] = cell-free, mean ± s.e.m., n = 3, read-out: IC50, human recombinant 5-LO
[8] = human recombinant 5-LO, read-out: IC50 for 5-LO inhibition

Row | Structure (SMILES) | IC50 [2] | IC50 [3, 7] | 12-LO product formation/PMNL, residual activity [4] | Cell viability/peripheral blood mononuclear cells, residual viability [1, 6] | 15-LO product formation/PMNL, residual activity [5] | further results
1 | Cc1cc(O)c(C)c2c1O[C@](C)(CCC[C@H](C)CCC[C@H](C)CCCC(C)C)CC2 [1b] | 57000 ± 2000 nM | 750 ± 150 nM | n.i. | n.i. | n.i. | –
2 | Cc1c(O)cc2c(c1C)O[C@](C)(CCC[C@H](C)CCC[C@H](C)CCCC(C)C)CC2 [1c] | 502000 ± 199000 nM | 910 ± 150 nM | n.i. | n.i. | n.i. | –
3 | CC(C)=CCC/C(C)=C/CC/C(C)=C/CC[C@]1(C)CCc2c(C)c(O)c(C)c(C)c2O1 [1e] | 277000 ± 90000 nM | 330 ± 80 nM | 88.9 ± 4.9 % of control | – | n.i. | –
4 | CC(C)=CCC/C(C)=C/CC/C(C)=C/CC[C@]1(C)CCc2c(C)c(O)cc(C)c2O1 [1f] | 95000 ± 5000 nM | 190 ± 30 nM | 65.4 ± 6.1 % of control | – | n.i. | –
5 | CC(C)=CCC/C(C)=C/CC/C(C)=C/CC[C@]1(C)CCc2cc(O)c(C)c(C)c2O1 [1g] | 132000 ± 33000 nM | 200 ± 60 nM | 70.8 ± 2.3 % of control | – | n.i. | –
6 | CC(C)=CCC/C(C)=C/CC/C(C)=C/CC[C@]1(C)CCc2cc(O)cc(C)c2O1 [1h] | 60000 ± 15000 nM | 170 ± 100 nM | 87.6 ± 8.5 % of control | n.i. | n.i. | –
7 | C/C(=C\CC[C@]1(C)CCc2cc(O)cc(C)c2O1)CC/C=C(\C)CCCC(C)C(=O)O (stereo partly drawn) [4l] | – | – | – | – | – | IC50 [3]: 170 ± 40 nM
8 | C/C(=C\CC/C(C)=C/CC[C@]1(C)CCc2cc(O)cc(C)c2O1)CCC=C(CO)CO [compound 8] | – | – | – | – | – | IC50 [3]: 150 ± 40 nM
9 | C/C(=C\CC/C(C)=C/CC[C@]1(C)CCc2cc(O)c(C)c(C)c2O1)CCC=C(CO)CO [compound 9] | – | – | – | – | – | IC50 [3]: 110 nM
10 | C/C(=C\CC/C(C)=C/CC[C@]1(C)CCc2cc(Oc3c(O)cc(C)c4c3CC[C@@](C)(CC/C=C(\C)CC/C=C(\C)CCC=C(CO)CO)O4)c(C)c(C)c2O1)CCC=C(CO)CO [compound 10, (δ,γ)-bi-O-amplexichromanol] | – | – | – | – | – | IC50 ([3]; purified human recombinant 5-LO, mean ± s.e.m., n = 3, read-out: IC50 (5-LO)): 400 ± 110 nM

Now from value to compound, other results behind:

Row | IC50 [2] | IC50 [3, 7] | 12-LO product formation/PMNL, residual activity [4] | Structure (SMILES) | Cell viability/peripheral blood mononuclear cells, residual viability [1, 6] | 15-LO product formation/PMNL, residual activity [5] | further results
11 | 270 ± 100 nM | 110 ± 10 nM | 62.7 ± 15.2 % of control | C/C(=C\CC/C(C)=C/CC/C(C)=C/CC[C@]1(C)CCc2c(C)c(O)c(C)c(C)c2O1)CO [2e] | – | 88.0 ± 17.0 % of control | –
12 | 380 ± 90 nM | 90 ± 30 nM | 57.8 ± 13.6 % of control | C/C(=C\CC/C(C)=C/CC/C(C)=C/CC[C@]1(C)CCc2c(C)c(O)cc(C)c2O1)CO [2f] | – | 78.9 ± 14.8 % of control | IC50 [3, 8]: < 100 nM
13 | 140 ± 20 nM | 120 ± 30 nM | – | C/C(=C/CC/C(C)=C/CC/C(C)=C/CC[C@]1(C)CCc2cc(O)c(C)c(C)c2O1)CO [3g] | – | 168.8 ± 1.2 % of control | Cell viability/peripheral blood mononuclear cells, residual viability ([1]; at 1 µM): n.i.; Cell viability/peripheral blood mononuclear cells, residual viability ([1]; at 10 µM): 43.7 ± 16.2 % of control
14 | – | – | 74.5 ± 5.9 % of control | Cc1cc(O)cc2c1O[C@](C)(CCC[C@H](C)CCC[C@H](C)CCCC(C)C(=O)O)CC2 (stereo partly drawn) [4d] | n.i. | 121.6 ± 10.9 % of control | –
15 | – | – | 72.6 ± 13.6 % of control | C/C(=C\CC/C(C)=C/CC[C@]1(C)CCc2c(C)c(O)c(C)c(C)c2O1)CC/C=C(\C)C(=O)O [4e] | n.i. | 181.5 ± 26.5 % of control | –
16 | – | – | 70.0 ± 14.1 % of control | C/C(=C\CC/C(C)=C/CC[C@]1(C)CCc2c(C)c(O)cc(C)c2O1)CC/C=C(\C)C(=O)O [4f] | n.i. | 186.1 ± 35.8 % of control | –
17 | – | – | 56.7 ± 3.0 % of control | Cc1c(C)c2c(c(C)c1O)CCC(C)(CCCC(C)C(=O)O)O2 (stereo not drawn) [5a, 3,4-dihydro-6-hydroxy-α,2,5,7,8-pentamethyl-2H-1-benzopyran-2-pentanoic acid] | – | n.i. | IC50 [3, 8]: 750 nM
18 | – | – | 87.2 ± 3.6 % of control | Cc1c(C)c2c(c(C)c1O)CCC(C)(CCC(=O)O)O2 (stereo not drawn) [6a, 2,5,7,8-tetramethyl-2-(2′-carboxyethyl)-6-hydroxychroman] | – | n.i. | –
19 | – | – | 89.9 ± 4.2 % of control | Cc1c(O)cc2c(c1C)OC(C)(CCC(=O)O)CC2 (stereo not drawn) [6c, 2,7,8-trimethyl-2-(2′-carboxyethyl)-6-hydroxychroman] | – | n.i. | –
20 | – | – | n.i. | Cc1cc(O)cc2c1OC(C)(CCC(=O)O)CC2 (stereo not drawn) [6d, 2,8-dimethyl-2-(2′-carboxyethyl)-6-hydroxychroman] | – | n.i. | –
